These results are taken from patent US20100015128A1, “GRP78 as a Predictor of Responsiveness to Therapeutic Agents” (UNIVERSITY OF SOUTHERN CALIFORNIA, priority 2006, published 2010).

One experiment concerns BIK. The experiment in a line: BIK protein induction under stress conditions (Western blot). It counts as cell-based, human. The conditions noted are these: human cells. The source says:
Cell lines and culture conditions. The estrogen-dependent cell line MCF-7/BUS was provided by A. M. Soto (Tufts University, Medford, Mass.) and has been described (Soto et al., Environ. Health Perspect. 103:113-22 (1995)). The human embryonic kidney 293T cells and MCF-7/BUS cells were maintained in DMEM supplemented with 10% fetal bovine serum. Estrogen starvation of MCF-7/BUS cells was done as described (Hur et al., PNAS 101:2351-6 (2004)). Briefly, the cells were washed thrice with phenol red-free DMEM and incubated in washing medium at 37° C. for 60 minutes. The MCF-7/BUS cells were then cultured in phenol red-free DMEM supplemented with 5% charcoal/dextran-stripped fetal bovine serum for 24 to 72 hours as indicated. For etoposide treatment, the cells were incubated with 50 μmol/L etoposide for 6 hours and cultured for another 24 hours before harvest.
Western blots and quantitation. The Western blots were done as described (Lee, Methods 35:373-81 (2005)). The primary antibodies were goat anti-BIK (N-19, Santa Cruz Biotechnology, Santa Cruz, Calif.), rat anti-Grp78 (76-E6, Santa Cruz Biotechnology), rat anti-GRP94, rabbit anti-calnexin, rabbit anti-calreticulin (Stressgen, Ann Arbor, Mich.), mouse anti-Flag M2, mouse anti-poly(ADP-ribose) polymerase (PARP; F-2, Santa Cruz Biotechnology, Santa Cruz, Calif.), and mouse anti-h-actin (Sigma-Aldrich, St. Louis, Mo.). Anti-h-actin was diluted at 1:2,000; anti-BIK at 1:500; and other antibodies at 1:1,000. Respective horseradish peroxidase-conjugated secondary antibodies (Santa Cruz Biotechnology, Santa Cruz, Calif.) at 1:1,000 dilution were used. The Western blots were quantitated by Fluor-S® MultiImager (Bio-Rad, Hercules, Calif.) according to the manufacturer's instructions. All quantitations were normalized against h-actin.

In the next experiment the test system is GRP78. The experiment in a line: Western blot of GRP78 in SK-N-SH cells with H129 antibody. It is filed as cell-based, human. To be noted: 0.5 μM thapsigargin 16 hours. The protocol: FIGS. 11A, 11B and 11C show specific detection of GRP78 by H129 antibody. FIG. 11A is a Western blot assay. The human neuroblastoma SK-N-SH cells were either grown under normal conditions (−) or treated with 0.5 μM thapsigargin for 16 hours. Fifty μg of total cell lysate prepared from these cells were subjected to Western blot analysis, using the […] (1:1000 dilution). […] In FIG. 11B, Chinese hamster ovary (CHO) cells expressing basal level of GRP78 and its derivative C.1 cells overexpressing GRP78 were embedded in paraffin after fixation in formalin. The sections prepared from these blocks were stained with the immunohistochemical technique using the H129 antibody (1:100 dilution). GRP78 level, as depicted by brown staining, was elevated in C.1 cells as compared to CHO cells (600×). In FIG. 11C, paraffin slides from breast cancer patients were stained with the H129 antibody with the immunohistochemical technique. Examples of plasma cell staining from two different patients are shown.
Background: In western blotting, separated proteins are transferred to a membrane and probed.

On to `C/C=C(/C)C(=O)O[C@H]1C(C)=C2[C@H]([C@@H]1OC(=O)CCCCCCC)[C@@](C)(OC(C)=O)C[C@H](OC(=O)CCC)[C@@]1(O)[C@H]2OC(=O)[C@@]1(C)O` [thapsigargin], for which the “induction of BIK by ER stress inducers” value with BIK is on record as “do not induce”. The GRP78 protein band entry in the experiment on GRP78 was “highly inducible”.
